From the supplement of paper PMC10307832

Compound: CC(C)CCN1c2nc(Nc3cc(F)c(O)c(F)c3)ncc2N(C)C(=O)C1C [BI-D1870] + NC(=O)Nc1cc(-c2cccc(F)c2)sc1C(=O)N[C@H]1CCCNC1 [AZD7762] (partner 0.2 µM)
Assay: relative viability (nuclei count vs DMSO), 5 days (fraction); higher = more cells survive
Settings: first compound 0.04 µM
Method in brief: (§1)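 Each reported value is a median over duplicate plates. It expresses relative viability: treated-well nuclei count divided by vehicle-well nuclei count. Lung cancer cell lines in 1536-well plates were dosed by pin tool a day after seeding, alone with one drug or with a fixed anchor-drug dose plus five library-drug doses (not always all listed) in √10 steps, and nuclei were counted after 5 days.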

Cell Line	relative viability
HCC-15	0.725
NCI-H1793	0.74
PC-14	0.449
EKVX	0.632
LC-2-ad	0.849
NCI-H1944	0.624
NCI-H1975	0.791
RERF-LC-KJ	0.944
ABC-1	0.805
NCI-H358	0.551
NCI-H650	1.14
PC-3 [JPC-3]	0.851

Same assay, conditions: first compound 0.1265 µM

Cell Line	relative viability
HCC-15	1.18
NCI-H1793	0.411
PC-14	0.301
EKVX	0.72
LC-2-ad	0.805
NCI-H1944	0.433
NCI-H1975	0.611
RERF-LC-KJ	0.896
ABC-1	0.82
NCI-H358	0.566
NCI-H650	0.83
PC-3 [JPC-3]	0.75

Same assay, conditions: first compound 0.4 µM

Cell Line	relative viability
HCC-15	1.04
NCI-H1793	0.296
PC-14	0.361
EKVX	0.61
LC-2-ad	0.831
NCI-H1944	0.514
NCI-H1975	0.721
RERF-LC-KJ	0.946
ABC-1	0.796
NCI-H358	0.52
NCI-H650	0.897
PC-3 [JPC-3]	0.837

Same assay, conditions: first compound 1.265 µM

Cell Line	relative viability
HCC-15	1.17
NCI-H1793	0.417
PC-14	0.344
EKVX	0.742
LC-2-ad	0.886
NCI-H1944	0.685
NCI-H1975	0.732
RERF-LC-KJ	1.08
ABC-1	0.791
NCI-H358	0.594
NCI-H650	1.17
PC-3 [JPC-3]	0.693

Same assay, conditions: first compound 4 µM

Cell Line	relative viability
HCC-15	1.08
NCI-H1793	0.504
PC-14	0.316
EKVX	0.701
LC-2-ad	0.675
NCI-H1944	0.546
NCI-H1975	0.653
RERF-LC-KJ	0.914
ABC-1	0.895
NCI-H358	0.492
NCI-H650	0.778
PC-3 [JPC-3]	0.449

Compound: O=c1ncccn1[C@@H]1O[C@H](CO)[C@@H](O)[C@H]1O [Zebularine] + Cc1nc(NC(=O)N2CCC[C@H]2C(N)=O)sc1-c1ccnc(C(C)(C)C(F)(F)F)c1 [Alpelisib] (partner 2 µM)
Assay: as above
Settings: first compound 1 µM
Method in brief: as §1

Cell Line	relative viability
HCC-15	1.01
NCI-H1793	0.812
PC-14	1.04
EKVX	0.958
LC-2-ad	1.03
NCI-H1944	0.858
NCI-H1975	0.705
RERF-LC-KJ	0.93
ABC-1	1.43
NCI-H358	0.888
NCI-H650	1.04
PC-3 [JPC-3]	1.09

Same assay, conditions: first compound 3.162 µM

Cell Line	relative viability
HCC-15	0.887
NCI-H1793	0.7
PC-14	0.953
EKVX	0.867
LC-2-ad	0.865
NCI-H1944	0.906
NCI-H1975	0.555
RERF-LC-KJ	0.859
ABC-1	1.01
NCI-H358	0.786
NCI-H650	1.2
PC-3 [JPC-3]	0.948

Same assay, conditions: first compound 10 µM

Cell Line	relative viability
HCC-15	0.596
NCI-H1793	0.391
PC-14	0.232
LC-2-ad	0.539
NCI-H1944	0.629
NCI-H1975	0.4
RERF-LC-KJ	0.611
ABC-1	0.84
NCI-H358	0.578
NCI-H650	0.894
PC-3 [JPC-3]	0.748

Same assay, conditions: first compound 31.62 µM

Cell Line	relative viability
HCC-15	0.654
NCI-H1793	0.357
PC-14	0.111
EKVX	0.963
LC-2-ad	0.491
NCI-H1944	0.805
NCI-H1975	0.354
RERF-LC-KJ	1.03
ABC-1	0.891
NCI-H358	0.495
NCI-H650	0.462
PC-3 [JPC-3]	0.824

Same assay, conditions: first compound 100 µM

Cell Line	relative viability
HCC-15	0.248
NCI-H1793	0.193
PC-14	0.163
EKVX	0.802
LC-2-ad	0.135
NCI-H1944	0.688
NCI-H1975	0.233
RERF-LC-KJ	0.753
ABC-1	0.536
NCI-H358	0.266
NCI-H650	0.319
PC-3 [JPC-3]	0.469

Compound: CC(C)CCN1c2nc(Nc3cc(F)c(O)c(F)c3)ncc2N(C)C(=O)C1C [BI-D1870] + COc1cc2c(Oc3ccc(NC(=O)C4(C(=O)Nc5ccc(F)cc5)CC4)cc3F)ccnc2cc1OCCCN1CCOCC1 [Foretinib] (partner 0.25 µM)
Assay: as above
Settings: first compound 0.04 µM
Method in brief: as §1

Cell Line	relative viability
HCC-15	1.11
NCI-H1793	0.72
PC-14	0.936
EKVX	1.3
LC-2-ad	1.01
NCI-H1944	0.992
NCI-H1975	0.996
RERF-LC-KJ	0.885
ABC-1	1.16
NCI-H358	0.657
NCI-H650	1.03
PC-3 [JPC-3]	0.999

Same assay, conditions: first compound 0.1265 µM

Cell Line	relative viability
HCC-15	0.911
NCI-H1793	0.561
PC-14	0.865
EKVX	0.593
LC-2-ad	0.932
NCI-H1944	0.799
NCI-H1975	0.849
RERF-LC-KJ	0.842
ABC-1	0.984
NCI-H358	0.529
NCI-H650	0.937
PC-3 [JPC-3]	1.01

Same assay, conditions: first compound 0.4 µM

Cell Line	relative viability
HCC-15	1
NCI-H1793	0.63
PC-14	0.908
EKVX	0.619
LC-2-ad	0.946
NCI-H1944	0.848
NCI-H1975	0.884
RERF-LC-KJ	0.878
ABC-1	1.1
NCI-H358	0.669
NCI-H650	0.968
PC-3 [JPC-3]	1.02

Same assay, conditions: first compound 1.265 µM

Cell Line	relative viability
HCC-15	0.921
NCI-H1793	0.737
PC-14	0.952
EKVX	0.935
LC-2-ad	0.975
NCI-H1944	1.04
NCI-H1975	0.912
RERF-LC-KJ	0.846
ABC-1	1.42
NCI-H358	0.752
NCI-H650	1.04
PC-3 [JPC-3]	1.06

Same assay, conditions: first compound 4 µM

Cell Line	relative viability
HCC-15	0.599
NCI-H1793	0.943
PC-14	0.945
EKVX	0.371
LC-2-ad	0.626
NCI-H1944	0.973
NCI-H1975	0.847
RERF-LC-KJ	0.909
ABC-1	0.913
NCI-H358	0.433
NCI-H650	0.894
PC-3 [JPC-3]	0.961

Compound: CC(C)CCN1c2nc(Nc3cc(F)c(O)c(F)c3)ncc2N(C)C(=O)C1C [BI-D1870] + Cc1cc(Nc2cc(N3CCN(C)CC3)nc(Sc3ccc(NC(=O)C4CC4)cc3)n2)n[nH]1 [Tozasertib] (partner 0.1 µM)
Assay: as above
Settings: first compound 0.04 µM
Method in brief: as §1

Cell Line	relative viability
HCC-15	0.523
NCI-H1793	0.376
PC-14	0.62
EKVX	0.433
LC-2-ad	0.561
NCI-H1944	0.293
NCI-H1975	0.79
RERF-LC-KJ	0.467
ABC-1	0.171
NCI-H358	0.124
NCI-H650	0.752
PC-3 [JPC-3]	0.913

Same assay, conditions: first compound 0.1265 µM

Cell Line	relative viability
HCC-15	0.347
NCI-H1793	0.246
PC-14	0.561
EKVX	0.379
LC-2-ad	0.479
NCI-H1944	0.233
NCI-H1975	0.509
RERF-LC-KJ	0.398
ABC-1	0.155
NCI-H358	0.0956
NCI-H650	0.677
PC-3 [JPC-3]	0.911

Same assay, conditions: first compound 0.4 µM

Cell Line	relative viability
HCC-15	0.33
NCI-H1793	0.207
PC-14	0.55
EKVX	0.378
LC-2-ad	0.443
NCI-H1944	0.25
NCI-H1975	0.223
RERF-LC-KJ	0.418
ABC-1	0.15
NCI-H358	0.118
NCI-H650	0.689
PC-3 [JPC-3]	0.866

Same assay, conditions: first compound 1.265 µM

Cell Line	relative viability
HCC-15	0.333
NCI-H1793	0.275
PC-14	0.659
EKVX	0.287
LC-2-ad	0.367
NCI-H1944	0.262
NCI-H1975	0.176
RERF-LC-KJ	0.338
ABC-1	0.197
NCI-H358	0.127
NCI-H650	0.588
PC-3 [JPC-3]	0.902

Same assay, conditions: first compound 4 µM

Cell Line	relative viability
HCC-15	0.185
NCI-H1793	0.226
PC-14	0.367
EKVX	0.206
LC-2-ad	0.373
NCI-H1944	0.235
NCI-H1975	0.145
RERF-LC-KJ	0.239
ABC-1	0.197
NCI-H358	0.113
NCI-H650	0.265
PC-3 [JPC-3]	0.8
